In the supplement of paper PMC11208160:

Assay: recombinant UMI read abundance after kanamycin selection (control-corrected) (log10(CPM+1)); higher = more efficient recombination; extreme values may be limits of the assay; sequences stand for … in AGTGCAGAGAAAATCGGCCAGTTTTCTCTGCCTGCAGTCCGCATGCCGTGGGACCCCTTGGGTTCTAACCTGTTGCCTAGATTTATGCAGCGGACTGCCTTTCTCCCAAAGTGATAAACCGG…AGGTTGGTTTCACT; site = the 11-nt donor
Procedure, shortened: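 For the IS621 bridge recombinase, a pooled Escherichia coli screen tested donor and donor-binding-loop pairs. Cells received the pair library together with a target plasmid encoding a fixed target and T7-inducible recombinase, then went onto IPTG (0.07 mM) plus kanamycin or unselected plates in duplicate. After PCR across the donor–target junction and sequencing, recombinant UMI counts were normalized to CPM, averaged, and scaled by control-derived factors. Each value is given as log10(CPM+1).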
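Note: IS621 bridge recombinase in Escherichia coli cells against a fixed T5 target plasmid.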

Sequence	recombinant UMI read abundance (log10)
CGGTTGGCATGGACCGGTTTTCCCGGTAATCCGTATTTGCT (site CGATTGGCTAG)	0.3
CGGTTGGCATGGACCGGTTTTCCCGGTAATCCGTATTTGCT (site CGCTTGGCTAG)	0.00834
CGGTTGGCATGGACCGGTTTTCCCGGTAATCCGTATTTGCT (site CGGTTGGCTAG)	1.08
CGGTTGGCATGGACCGGTTTTCCCGGTAATCCGTATTTGCT (site CGTTTGGCTAG)	0
CGTAAGCCATGGACCGGTTTTCCCGGTAATCCGTATTTGTT (site CGGAATCCTAA)	0
CGTAAGCCATGGACCGGTTTTCCCGGTAATCCGTATTTGTT (site CGTAAGCCTAA)	0.666
CGTAATCCATGGACCGGTTTTCCCGGTAATCCGTATTTGTT (site CGAAATCCTAA)	0.00285
CGTAATCCATGGACCGGTTTTCCCGGTAATCCGTATTTGTT (site CGCAATCCTAA)	0
CGTAATCCATGGACCGGTTTTCCCGGTAATCCGTATTTGTT (site CGGAATCCTAA)	0.00347
CGTAATCCATGGACCGGTTTTCCCGGTAATCCGTATTTGTT (site CGTAATCCTAA)	0
CGTACATCATGGACCGGTTTTCCCGGTAATCCGTATTTGCT (site CGAACATCTAG)	0.623
CGTACATCATGGACCGGTTTTCCCGGTAATCCGTATTTGCT (site CGATCATCTAG)	0
CGTACATCATGGACCGGTTTTCCCGGTAATCCGTATTTGCT (site CGCACATCTAG)	0
CGTACATCATGGACCGGTTTTCCCGGTAATCCGTATTTGCT (site CGGACATCTAG)	0
CGTACATCATGGACCGGTTTTCCCGGTAATCCGTATTTGCT (site CGTACATCTAG)	1.39
CGTACCACATGGACCGGTTTTCCCGGTAATCCGTATTTGAG (site CGTACCACTCT)	1.06

Sequence	recombinant UMI read abundance (log10)
CGTAGAACATGGACCGGTTTTCCCGGTAATCCGTATTTGCC (site CGTAGAACTGG)	2.75
CGTATGGCATGGACCGGTTTTCCCGGTAATCCGTATTTGCT (site CGTATGGCTAG)	0.895
CGTATGGCATGGACCGGTTTTCCCGGTAATCCGTATTTGCT (site CGTCTGGCTAG)	0
CGTATGGCATGGACCGGTTTTCCCGGTAATCCGTATTTGCT (site CGTGTGGCTAG)	0.0109
CGTATGGCATGGACCGGTTTTCCCGGTAATCCGTATTTGCT (site CGTTTGGCTAG)	0
CGTCTATCATGGACCGGTTTTCCCGGTAATCCGTATTTGCC (site CGTCTATCTGG)	2.64
CGTCTGACATGGACCGGTTTTCCCGGTAATCCGTATTTGAC (site CGTCTGACTGT)	0.908
CGTCTGGCATGGACCGGTTTTCCCGGTAATCCGTATTTGCT (site CGTATGGCTAG)	0
CGTCTGGCATGGACCGGTTTTCCCGGTAATCCGTATTTGCT (site CGTCTGGCTAG)	0.46
CGTCTGGCATGGACCGGTTTTCCCGGTAATCCGTATTTGCT (site CGTGTGGCTAG)	0.00552
CGTCTGGCATGGACCGGTTTTCCCGGTAATCCGTATTTGCT (site CGTTTGGCTAG)	0
CGTCTTCCATGGACCGGTTTTCCCGGTAATCCGTATTTGTC (site CGTCTTCCTGA)	1.19
CGTGAGACATGGACCGGTTTTCCCGGTAATCCGTATTTGAG (site CGTAAGACTCT)	2.08
CGTGAGACATGGACCGGTTTTCCCGGTAATCCGTATTTGAG (site CGTCAGACTCT)	0.00623
CGTGAGACATGGACCGGTTTTCCCGGTAATCCGTATTTGAG (site CGTGAGACTCT)	2.08
CGTGAGACATGGACCGGTTTTCCCGGTAATCCGTATTTGAG (site CGTTAGACTCT)	0.167
